Measured values from ChEMBL document CHEMBL2074356, “Direct evidence for peptide transporter (PepT1)-mediated uptake of a nonpeptide prodrug, valacyclovir” (Biochem Biophys Res Commun, 1998).
Non-standard residues stand in square brackets, D forms with d. Residues, ends and D or L forms follow the SMILES beside them. Sar = CNCC(=O)O

How the values were obtained:
[1] = target: T1, Solute carrier family 15 member 1 (Homo sapiens) (UniProt P46059); assay: TP_TRANSPORTER: inhibition of VACV uptake (VACV: 0.2 uM, Gly-Sar: 10000 uM) in Xenopus laevis oocytes; assay type: functional, cell-based; conditions: Oocyte
T1 sequence (whole entry): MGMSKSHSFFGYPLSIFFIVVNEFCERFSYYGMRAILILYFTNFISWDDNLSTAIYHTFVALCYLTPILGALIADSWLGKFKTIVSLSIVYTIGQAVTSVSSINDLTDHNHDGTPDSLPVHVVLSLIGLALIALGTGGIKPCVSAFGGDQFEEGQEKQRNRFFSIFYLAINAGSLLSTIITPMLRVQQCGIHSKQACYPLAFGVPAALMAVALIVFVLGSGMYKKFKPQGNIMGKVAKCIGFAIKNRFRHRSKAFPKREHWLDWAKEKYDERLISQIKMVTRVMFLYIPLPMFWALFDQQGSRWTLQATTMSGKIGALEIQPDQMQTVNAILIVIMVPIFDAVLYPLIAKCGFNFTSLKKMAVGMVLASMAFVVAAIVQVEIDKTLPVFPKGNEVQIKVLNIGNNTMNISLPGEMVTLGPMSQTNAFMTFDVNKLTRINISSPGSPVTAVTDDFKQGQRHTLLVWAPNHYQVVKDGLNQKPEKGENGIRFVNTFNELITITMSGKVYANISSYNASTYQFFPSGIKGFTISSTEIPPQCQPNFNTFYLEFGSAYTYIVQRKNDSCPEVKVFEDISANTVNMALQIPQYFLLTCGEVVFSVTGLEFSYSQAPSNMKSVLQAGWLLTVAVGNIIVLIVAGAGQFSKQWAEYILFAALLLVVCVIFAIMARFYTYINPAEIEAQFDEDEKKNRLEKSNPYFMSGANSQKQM

[2] = target: T1, Solute carrier family 15 member 1 (Homo sapiens); assay: TP_TRANSPORTER: inhibition of VACV uptake (VACV: 0.2 uM, Carnosine: 10000 uM) in Xenopus laevis oocytes; assay type: functional, cell-based; conditions: Oocyte
[3] = target: T1, Solute carrier family 15 member 1 (Homo sapiens); assay: TP_TRANSPORTER: inhibition of VACV uptake (VACV: 0.2 uM, Gly-Gly-Gly: 10000 uM) in Xenopus laevis oocytes; assay type: functional, cell-based; conditions: Oocyte
[4] = target: T2, Solute carrier family 15 member 1 (Homo sapiens, UniProt P46059); assay: TP_TRANSPORTER: inhibition of Gly-Sar uptake in Xenopus laevis oocytes; assay type: functional, cell-based, Oocyte
T2 sequence (P46059 whole entry): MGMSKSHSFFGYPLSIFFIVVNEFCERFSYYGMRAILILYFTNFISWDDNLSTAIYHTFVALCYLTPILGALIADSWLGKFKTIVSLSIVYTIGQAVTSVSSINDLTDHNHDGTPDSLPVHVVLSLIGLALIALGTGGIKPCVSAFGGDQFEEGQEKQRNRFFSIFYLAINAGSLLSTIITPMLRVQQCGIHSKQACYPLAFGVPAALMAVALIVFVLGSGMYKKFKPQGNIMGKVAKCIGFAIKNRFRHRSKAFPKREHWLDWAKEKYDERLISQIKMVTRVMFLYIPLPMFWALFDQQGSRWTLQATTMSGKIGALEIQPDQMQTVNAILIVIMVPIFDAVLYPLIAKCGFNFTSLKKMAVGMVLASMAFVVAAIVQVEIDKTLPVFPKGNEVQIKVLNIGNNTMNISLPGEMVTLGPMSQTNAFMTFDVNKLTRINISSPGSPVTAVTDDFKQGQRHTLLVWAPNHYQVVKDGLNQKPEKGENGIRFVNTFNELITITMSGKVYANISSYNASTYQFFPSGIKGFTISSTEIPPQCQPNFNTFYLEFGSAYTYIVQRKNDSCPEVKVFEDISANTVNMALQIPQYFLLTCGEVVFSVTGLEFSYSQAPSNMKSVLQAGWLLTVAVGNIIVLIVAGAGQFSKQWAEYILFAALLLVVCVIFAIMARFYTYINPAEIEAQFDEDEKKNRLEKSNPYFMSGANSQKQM

[5] = substrate: CC(C)[C@H](N)C(=O)OCCOCn1cnc2c(=O)nc(N)[nH]c21; conditions: Xenopus laevis; Oocyte

Molecule: CN(CC(=O)O)C(=O)CN (H-Gly-[Sar]-OH)
- Activity [1]: inhibitor [55% (at a rough estimate) of control]

Molecule: NCCC(=O)N[C@@H](Cc1c[nH]cn1)C(=O)O
- Activity [2]: inhibitor [70% (at a rough estimate) of control]

Molecule: NCC(=O)NCC(=O)NCC(=O)O
- Activity [3]: inhibitor [55% (at a rough estimate) of control]

Molecule: CC(C)[C@H](N)C(=O)OCCOCn1cnc2c(=O)[nH]c(N)nc21 [VALACYCLOVIR]
- Ki [4]: 4.08 mM

B1: Solute carrier family 15 member 1 (Homo sapiens), P46059 (protein)
chain: MGMSKSHSFFGYPLSIFFIVVNEFCERFSYYGMRAILILYFTNFISWDDNLSTAIYHTFVALCYLTPILGALIADSWLGKFKTIVSLSIVYTIGQAVTSVSSINDLTDHNHDGTPDSLPVHVVLSLIGLALIALGTGGIKPCVSAFGGDQFEEGQEKQRNRFFSIFYLAINAGSLLSTIITPMLRVQQCGIHSKQACYPLAFGVPAALMAVALIVFVLGSGMYKKFKPQGNIMGKVAKCIGFAIKNRFRHRSKAFPKREHWLDWAKEKYDERLISQIKMVTRVMFLYIPLPMFWALFDQQGSRWTLQATTMSGKIGALEIQPDQMQTVNAILIVIMVPIFDAVLYPLIAKCGFNFTSLKKMAVGMVLASMAFVVAAIVQVEIDKTLPVFPKGNEVQIKVLNIGNNTMNISLPGEMVTLGPMSQTNAFMTFDVNKLTRINISSPGSPVTAVTDDFKQGQRHTLLVWAPNHYQVVKDGLNQKPEKGENGIRFVNTFNELITITMSGKVYANISSYNASTYQFFPSGIKGFTISSTEIPPQCQPNFNTFYLEFGSAYTYIVQRKNDSCPEVKVFEDISANTVNMALQIPQYFLLTCGEVVFSVTGLEFSYSQAPSNMKSVLQAGWLLTVAVGNIIVLIVAGAGQFSKQWAEYILFAALLLVVCVIFAIMARFYTYINPAEIEAQFDEDEKKNRLEKSNPYFMSGANSQKQM
- Km [5]: 5.94 mM
